Measured values published in US9096554B2, “Drugs for inhibiting p38 and uses thereof” (UNIVERSIDAD AUTÓNOMA DE MADRID, priority 2011, dated 2015).
Entries after “also recorded” stand apart in the source; their conditions may differ.

Columns and labels:
[1] = tested on: TNF-α secretion in response to bacterial LPS in human monocytes (THP-1); assay: TNF-α secretion in response to LPS in THP-1 monocytes (ELISA); assay type: cell-based; conditions: for IC50: Homo sapiens, THP-1, LPS; for activity in TNF-α secretion inhibition compared with comparative Compounds 10-14: FIG. 8
Description: (§1) This assay was performed to analyze the effect of the compounds of the invention on tumor necrosis factor alpha (TNF-α) secretion in response to bacterial lipopolysaccharide (LPS) in human monocytes (THP-1) and on the survival of said THP-1 monocytes in the presence of said compounds.
(§2) Briefly, cells from human monocytic cell line THP-1 (ATCC) at a density of about 10^6 cells/ml were stimulated with bacterial LPS (Sigma, Ref.# L2654) at a concentration of 1 mg/ml for 4 hours in the presence of the compounds of the invention dissolved in dimethyl sulfoxide (DMSO) at different concentrations (0.001, 0.01, 0.1, 1, 10 and 100 μM). The amount of TNF-α secreted into the medium in response to LPS was quantified by means of an ELISA assay (BioTrak, Ref.# RPN2758, GE-Amersham) following the manufacturer's instructions. Cell viability was quantified by means of flow cytometry FACS (FACScalibur, Becton Dickinson) after staining the treated cells with propidium iodide (1 mg/l) and quantifying the amount of positive cells for this stain (Software Cell Quest Pro).
These assays were performed to compare the effect of the compounds of the invention (compounds 1, 2 and 3) on tumor necrosis factor alpha (TNF-α) secretion in response to bacterial lipopolysaccharide (LPS) in human monocytes (THP-1) with respect to compounds that are structurally related but have a different substitution pattern in the phenyl ring. Conditions similar to those described in Example 7 were used.

p38 MAPK [2] = target: p38 MAPK (Homo sapiens, UniProt Q16539); assay: Inhibition of MEF2A phosphorylation by p38 MAPK in vitro; assay type: biochemical; conditions: MEF2A (10 nM) phosphorylation by active recombinant p38 (1 nM), 5 minutes
p38 MAPK (Homo sapiens, UniProt Q16539), sequence (Q16539 whole entry): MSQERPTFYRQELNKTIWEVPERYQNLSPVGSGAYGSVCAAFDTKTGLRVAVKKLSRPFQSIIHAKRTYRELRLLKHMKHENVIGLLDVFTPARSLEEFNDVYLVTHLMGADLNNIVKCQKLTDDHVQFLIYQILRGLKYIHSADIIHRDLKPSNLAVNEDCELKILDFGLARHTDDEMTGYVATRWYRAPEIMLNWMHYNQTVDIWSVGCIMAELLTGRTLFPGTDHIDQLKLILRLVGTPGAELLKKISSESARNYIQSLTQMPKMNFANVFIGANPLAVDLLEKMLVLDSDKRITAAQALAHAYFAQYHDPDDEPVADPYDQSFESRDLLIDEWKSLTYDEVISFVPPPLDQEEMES
Description: This assay was performed to quantify the effect of the compounds of the invention on MEF2-A phosphorylation by p38 MAPK in vitro.
To that end, briefly, active recombinant p38 (1 nM) and MEF2A (10 nM) were incubated with different concentrations of Compound 1 in a kinase buffer for 5 minutes. The proteins were resolved using SDS-PAGE and the activity of p38 was measured as phosphorylated MEF2A using anti-P-MEF2A (T312), a specific antibody. The mean of the results is graphically depicted as a percentage with respect to the controls (DMSO) of two independent experiments conducted in duplicate. For comparative purposes, Compound 5 at a concentration of 10 μM was used.
Finally, the in vitro mean inhibitory concentration (IC50) of this reaction for each assayed compound was determined as the measurement of the efficacy of a compound for inhibiting this biochemical function using a sufficient range of concentrations of each of these compounds (data not shown).

LysM-GRK2^f/+ mice = assay: Carrageenan-induced hyperalgesia in LysM-GRK2f/+ mice, intrathecal injection; assay type: in vivo; conditions: for hyperalgesia (paw withdrawal latency to heat): 7 days after carrageenan
Excerpt: To perform this assay, a previously described protocol was followed [Willemen H L, et al., Microglial/macrophage GRK2 determines duration of peripheral IL-1beta-induced hyperalgesia: contribution of spinal cord CX3CR1, p38 and IL-1 signaling. Pain. 2010 September; 150(3):550-60; and Eijkelkamp N, et al., (http://www.ncbi.nlm.nih.gov/pubmed/20147541; J. Neurosci. 2010 Feb. 10; 30(6):2138-49). Briefly, eight female LysM-GRK2^f/+ mice (2 mice per group, 4 paws for each condition) were subjected to an intraplantar injection of carrageenan (Sigma-Aldrich, […] of a 1% solution in saline) for inducing inflammatory-type hyperalgesia in the extremities. Seven (7) days after injecting carrageenan, the paw withdrawal latency time when the paw is in contact with heat was determined as an indication of inflammatory-type pain at time 0 (T=0). The carrier (20% DMSO) or Compound 1 at different concentrations (0.15, 0.5 and 1.5 μg in 5 μL of 20% DMSO) was then intrathecally injected.
The paw withdrawal latency periods were then measured at different times (0.5, 1, 2, 4, 6, 8, 10, 24, 48 and 96 hours after injecting the compound).
To evaluate the effect of Compound 5 on hyperalgesia induced in mice, a protocol similar to that described for Compound 1 in Example 9A was followed, but in this protocol, the known p38 MAPK inhibitor SB239063 (5 μg in 5 μL of 20% DMSO), the carrier (20% DMSO), or Compound 5 (4 μg in 5 μL of 20% DMSO) was intrathecally injected 7 days after injecting the carrageenan.

THP-1 monocytes = assay: THP-1 monocyte survival (propidium iodide, FACS); assay type: cell-based, human; conditions: dose causing the death of 50% of the cells; THP-1, propidium iodide FACS
Description: as §1, §2

[3] = tested on: spinal cord astrocytes and neurons; assay: Toxicity at the intrathecal injection site, Fluoro-Jade B staining, LysM-GRK2f/+ mice; assay type: in vivo; conditions: two days after the injection, FIG. 10
Description: Furthermore, the possible toxicity of Compound 1 at the injection site (intrathecal) was measured.

[4] = tested on: wild-type mice of strain C54BL/6; assay: Hyperalgesia induced by high doses of carrageenan in wild-type mice, intrathecal injection; assay type: in vivo; conditions: for analgesic effect: FIG. 11A
Description: The administration of high doses of carrageenan is known to induce hyperalgesia and prolonged inflammation in wild-type mice. Briefly, 16 female wild-type mice of strain C54BL/6 (4 mice per group, 8 paws for each condition) were subjected to intraplantar injection of carrageenan (Sigma-Aldrich, 20 μL of a 2% solution % in saline) for inducing inflammatory-type hyperalgesia in the extremities. Six (6) days after injecting carrageenan, the paw withdrawal latency time when the paw is in contact with heat was determined as an indication of inflammatory-type pain at time 0 (T=0). The known p38 MAPK inhibitor SB239063 [trans-4-[4-(4-fluorophenyl)-5-(2-methoxy-4-pyrimidinyl)-1H-imidazol-1-yl]cyclohexanol] (5 μg in 5 μL of 20% DMSO), the carrier (20% DMSO), or Compound 1 at different concentrations (0.5, 1.0 and 1.5 μg in 5 μL of 20% DMSO) was then intrathecally injected.

TNF-α = TNF-α levels in the spinal cord after intrathecal treatment (ELISA); assay type: in vivo, mice; conditions: FIG. 11D
Description: To find out if TNF-α levels are repressed in vivo after treatment with Compound 1, the spinal cord was isolated two days after intrathecal treatment with said compound and TNF-α levels were analyzed with ELISA.

[5] = tested on: peritoneal macrophages of WT and GRK2^+/− mice; assay: LPS-induced TNF-α secretion in peritoneal macrophages of WT and GRK2+/− mice; assay type: cell-based; conditions: all doses, FIG. 13
Description: GRK2^+/− peritoneal macrophages were subjected to treatment with LPS and TNF secretion was measured in the presence of increasing doses of Compound 1 as described above. The inhibition observed in GRK2^+/− macrophages was greater than that obtained for WT cells for all doses of Compound 1. The data are means of points in duplicate referring in each case to the secretion obtained in WT macrophages in the presence of Compound 1 at the same dose.
TNF-α secretion inhibition in peritoneal macrophages of GRK2^+/− mice with Compound 1 was studied. As can be observed in FIG. 13, the greater effect of Compound 1 on GRK2^+/− macrophages may indicate that cells with a lower GRK2 level, as occurs in immune system cells from patients with inflammatory pathologies (Vroon A, Kavelaars A, Limmroth V, Lombardi M S, Goebel M U, Van Dam A M, Caron M G, Schedlowski M, Heijnen C J., J Immunol., 2005, 174(7), 4400-6) are more sensitive to such inhibition.

[6] = Paw thickness as measurement of ongoing inflammation; assay type: in vivo, mice; conditions: six days after treatment, FIG. 11E
p38 MAPK [7] = assay: Activation of p38 MAPK in response to LPS and its activity (P-MK2, P-Hsp27) in THP-1 cells, Western Blot; assay type: cell-based, human; conditions: THP-1, LPS, 1 and 5 μM, FIG. 2B
Description: This assay was performed to analyze the effect of Compound 1 on the activation of p38 MAPK and on its activity in a human monocytic cell line (THP-1) (American Type Culture Collection: http://www.atcc.org/) treated with different concentrations of said compound.
Briefly, human monocytic cells from said THP-1 cell line at a density of about 10^6 cells/ml were stimulated with bacterial LPS (Sigma #L2654) at a concentration of between 1 and 10 mg/ml (which may vary depending on the batch) for 1 hour in the absence or presence of Compound 1 at different concentrations (1 μM and 5 μM) dissolved in dimethyl sulfoxide (DMSO). DMSO was used as a control. The cells were lysed in a 100 mM pH 7.5 Tris/HCl buffer, 200 mM EDTA, 1 μM benzamidine, 10 mg/ml STI (soy trypsin inhibitor), 10 mg/ml bacitracin, 80 mU/ml aprotinin, 100 μM phenylmethanesulfonyl fluoride (PMSF) and phosSTOP (Roche, Ref.#04906845001). The samples were subsequently analyzed using Western Blot with specific antibodies. Briefly, the activation of p38 MAPK was analyzed by quantifying by densitometry the amount of p38 MAPK phosphorylated in the activation loop (TGY) by means of Western Blot with anti-phospho-T180-Y182-p38 antibodies (Cell Signaling, Ref.#9211) and by normalizing the values with those obtained for total p38 MAPK levels in each lysate. […]

[8] = Table 3, comparison with positional isomers
[9] = doses of 1 and 1.5 μg intrathecal

Cc1ccc(Nc2ccc([N+](=O)[O-])c3nonc23)cc1Cl [Compound 7, reference compound]
IC50 [1, 8]: 17 ± 1.41 µM

O=[N+]([O-])c1ccc(Nc2cccc(F)c2F)c2nonc12 [Compound 9, reference compound]
IC50 ([1]; Table 4, comparison with positional isomer): 5.25 ± 0.35 µM
capacity for reducing TNF-α secretion compared with Compound 3 ([1]; human monocytes, FIG. 7): lower capacity

Cc1ccc(C)c(Nc2cc(Cl)c3nonc3c2[N+](=O)[O-])c1 [Compound 6, (7-chloro-4-nitro-benzo[1,2,5]oxadiazol-5-yl)-(2,5-dimethyl-phenyl)-amine]
IC50 ([1]; Table 2, TNF-α ELISA): 3 µM

Cc1ccc(Cl)cc1Nc1cc(Cl)c2nonc2c1[N+](=O)[O-] [Compound 5, (5-chloro-2-methyl-phenyl)-(7-chloro-4-nitro-benzo[1,2,5]oxadiazol-5-yl)-amine]
IC50 (p38 MAPK [2]): 10 µM
IC50 ([1]; Table 2, TNF-α ELISA): 0.3 µM
time after administering at which the decrease in hyperalgesia can be detected (LysM-GRK2^f/+ mice; 4 μg intrathecal): 8 days
hyperalgesia (paw withdrawal latency to heat) (LysM-GRK2^f/+ mice; 4 μg intrathecal, FIG. 12): decrease in hyperalgesia
TD50 (μM) (THP-1 monocytes): >35 μM (n = 3)

COc1ccc(Cl)cc1C(=O)Nc1ccc(Cl)c2nonc12 [Compound 4, 5-chloro-N-(7-chloro-benzo[1,2,5]oxadiazol-4-yl)-2-methoxy-benzamide]
IC50 ([1]; Table 2, TNF-α ELISA): 3.2 µM

O=[N+]([O-])c1ccc(Nc2cc(Cl)ccc2O)c2nonc12 [Compound 2, 4-chloro-2-(7-nitro-benzo[1,2,5]oxadiazol-4-ylamino)-phenol]
IC50 ([1]; Table 2, TNF-α ELISA): 3.2 ± 0.25 µM
activity in TNF-α secretion inhibition compared with comparative Compounds 10-14 ([1]; human monocytes): greater activity
TD50 (μM) (THP-1 monocytes): >100 μM (n = 2)

O=[N+]([O-])c1ccc(Nc2cc(F)ccc2F)c2nonc12 [Compound 3, (2,5-difluoro-phenyl)-(7-nitro-benzo[1,2,5]oxadiazol-4-yl)-amine]
IC50 ([1]; Table 2, TNF-α ELISA): 2.9 ± 0.41 µM

Cc1ccc(Nc2ccc([N+](=O)[O-])c3nonc23)c(Cl)c1 [Compound 8, reference compound]
IC50 [1, 8]: 29 ± 1.41 µM

Cc1ccc(Cl)cc1Nc1ccc([N+](=O)[O-])c2nonc12 [Compound 1, (5-chloro-2-methyl-phenyl)-(7-nitro-benzo[1,2,5]oxadiazol-4-yl)-amine]
neurotoxicity at the injection site (Fluoro-Jade B, dead or damaged cells) [3]: no signs of neurotoxicity were detected; also recorded: hardly any dead cells
IC50 (p38 MAPK [2]): 6.5 µM
analgesic effect ([4]; dose of 0.5 μg intrathecal, 6 days after carrageenan): temporary effect
duration of analgesic effect [4, 9]: at least 5 days
analgesic effect [4, 9]: long-term analgesic effect
TNF-α levels in the spinal cord (TNF-α; after intraplantar carrageenan, two days after intrathecal treatment): significantly reduces
TNF-α secretion, compound alone (TNF-α; without carrageenan): has no effect
inhibition of TNF secretion in GRK2+/− macrophages compared with WT cells [5]: greater
mouse paw thickness [6]: increased
IC50 ([1]; Table 2, TNF-α ELISA): 1.8 ± 0.006 µM
activity in TNF-α secretion inhibition compared with comparative Compounds 10-14 ([1]; human monocytes): greater activity
long-term analgesic effect (LysM-GRK2^f/+ mice; dose of 0.3 μg intrathecal, FIG. 9B): did not provide any long-term analgesic effect
time the reduction of hyperalgesia was maintained after administering (LysM-GRK2^f/+ mice; doses of 0.5 and 1.5 μg intrathecal): ≥ 96 h
hyperalgesia (paw withdrawal latency to heat) (LysM-GRK2^f/+ mice; doses of 0.5 and 1.5 μg intrathecal, FIG. 9A): almost complete reduction of hyperalgesia
lowest effective dose (LysM-GRK2^f/+ mice; intrathecal, FIG. 9B): 0.5 µg
activation of p38 MAPK (P-p38) (p38 MAPK [7]): decrease in the activation of p38 MAPK
phosphorylation of MK2 and Hsp27 substrates (p38 MAPK [7]): decrease in the phosphorylation
TD50 (μM) (THP-1 monocytes): ≈200 μM (n = 2)
